Data as given in US20240317774A1, “Pharmaceutical Compound” (GLAXOSMITHKLINE INTELLECTUAL PROPERTY DEVELOPMENT LIMITED, priority 2021, published 2024).
Like-named read-outs stand apart in the source and are kept apart here.

Key:
[1] = tested on: P. falciparum 3D7A; assay: Panel of P. falciparum strains: 3D7A; type: cell-based; settings: Plasmodium falciparum, read-out: IC50 (mean μM ± SD) 3D7A
[2] = tested on: P. falciparum Dd2; assay: Panel of P. falciparum strains: Dd2; type: cell-based; settings: strain Dd2
[3] = tested on: P. falciparum Tm90C2A; assay: Panel of P. falciparum strains: Tm90C2A; type: cell-based; settings: strain Tm90C2A
[4] = tested on: P. falciparum Tm90C2B; type: cell-based; settings: strain Tm90C2B
[5] = tested on: P. falciparum FCR3; assay: Panel of P. falciparum strains: FCR3; type: cell-based; settings: strain FCR3
[6] = tested on: P. falciparum infected erythrocytes; assay: Blood stages activity, [3H]hypoxanthine incorporation method; type: cell-based; settings: Plasmodium falciparum, Erythrocyte; whole cell activity; read-out: WC IC50
Protocol: The sensitivity of P. falciparum infected erythrocytes to the compound was determined using the [3H]hypoxanthine incorporation method with an inoculum of 0.5% parasitemia (ring stage) and 2% hematocrit. The parasites were grown in RPMI 1640, 25 mM HEPES and supplemented with 5% Albumax. Plates are incubated at 37° C., 5% CO2, 5% O2, 90% N2. After 24 h of incubation, [3H]hypoxanthine is added and plates are incubated for another 24 h. After that period, plates are harvested on a glass fiber filter using a TOMTEC Cell harvester 96. Filters are dried and melt on scintillator sheets and the bound radioactivity is quantified by use of a Wallac Microbeta Trilux (Model 1450 LS-Perkin Elmer). IC50s are determined using Grafit 7 program (Grafit program; Erithacus Software, Horley, Surrey, United Kingdom).

[7] = target: T1, cytochrome bc1 of mitochondria isolated from human cells (HEK293) (Homo sapiens, UniProt P00156); assay: Enzymatic bc1 inhibition, cytochrome c reductase activity, human mitochondria; type: biochemical; settings: for IC50: activity in the human target, read-out: Hbc1 IC50; for Tox window selectivity index: human bc1 vs P. falciparum bc1
T1 construct: endogenous in cells; host or cells: HEK293 (isolated mitochondria)
Protocol: (§1) For cytochrome bc1 experiments, mitochondria were isolated as follows: parasitized erythrocytes were harvested by centrifugation and lysed with 0.05% (w/v) saponin in RPMI. Then parasites were washed three times with H-medium (0.07 M sucrose, 0.21 M mannitol, 1 mM EGTA, 5 mM MgCl2, 5 mM KH2PO4, and 4 mM HEPES, pH 7.4) and resuspended in the same medium in the presence of 1 mM PMSF and protease inhibitor cocktail (Roche Complete). Parasites were disrupted by N2 cavitation (4639 Cell disruption Bomb, Parr Instrument, Moline, IL, USA) at 1600 psi for 25 min at 4° C. Unbroken cells and cell debris were removed by centrifugation at 1,200×g for 10 min at 4° C. The mitochondrial fraction was pelleted at 10,000×g for 20 min at 4° C. The mitochondrial pellet was gently resuspended in 0.8 M sucrose, 1 mM EDTA, 10 mM Tris-HCl PH 7.4, and 0.1% BSA prior to separation on a 1-2 M sucrose gradient. The sample was centrifuged on a gradient at 80,000×g for 2 hr at 4° C. The mitochondria were then recovered and washed with 1 mM EDTA, 10 mM Tris-HCL pH 7.4 to remove sucrose, and resuspended in H-medium with protease inhibitor cocktail and 1 mM PMSF. Samples were stored at −80° C. until use. In the case of human mitochondria, HEK293 human cell line was used as starting material. Cells were pelleted at 400×g 10 min and disrupted by N2 cavitation. Mitochondria then were isolated using the method described above. Cytochrome c reductase activity was assayed by a modification of the method of Fry and Pudney, Biochem. Pharmacol., 43 (1992), pp. 1545-1553. Mitochondria (40 μg/ml) were diluted in reaction buffer (250 mM sucrose, 50 mM KH2PO4, 0.2 mM EDTA, 1 mM NaN3, and 2.5 mM KCN) containing 50 μM cytochrome c. Reactions were started by addition of 25 μM decylubiquinol and monitored by reduction of cytochrome c at 550 nm. To assure the linearity of the enzymatic reaction only data from the first 60 s were collected. Decylubiquinol substrate was prepared by reducing decylubiquinone (Sigma-Aldrich, St. Louis, MO, USA) in ethanol with sodium borohydride. Decylubiquinol was aliquoted and stored in acidified ethanol at −80° C. Inhibition of bc1 activity on mitochondria isolated from human parasites (P. falciparum 3D7A), rodent parasites (P. berghei ANKA) and human cells (HEK293).

[8] = target: T2, cytochrome bc1 of mitochondria isolated from human parasites (P. falciparum 3D7A) (Plasmodium falciparum, UniProt Q02768); assay: Enzymatic bc1 inhibition, cytochrome c reductase activity, P. falciparum mitochondria; type: biochemical
T2 construct: endogenous in cells; host or cells: P. falciparum 3D7A parasites from parasitized erythrocytes (isolated mitochondria)
T2 sequence (Q02768 whole entry): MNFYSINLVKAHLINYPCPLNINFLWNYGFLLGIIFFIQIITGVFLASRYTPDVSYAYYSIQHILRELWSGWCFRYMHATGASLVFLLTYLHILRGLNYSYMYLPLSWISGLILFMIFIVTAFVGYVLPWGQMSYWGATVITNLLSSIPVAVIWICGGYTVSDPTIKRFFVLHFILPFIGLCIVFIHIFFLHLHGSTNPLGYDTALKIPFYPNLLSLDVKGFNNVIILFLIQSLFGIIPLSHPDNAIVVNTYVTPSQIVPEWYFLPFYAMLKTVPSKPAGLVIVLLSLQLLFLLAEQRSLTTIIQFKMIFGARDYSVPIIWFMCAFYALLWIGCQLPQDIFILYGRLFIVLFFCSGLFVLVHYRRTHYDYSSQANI
Protocol: as §1

[9] = activity in the P. falciparum target, read-out: p.fbc1 IC50

Structure (SMILES)	IC50 [1]	Pf IC50 Ratio vs Pf IC50 3D7, Dd2 [2]	Pf IC50 Ratio vs Pf IC50 3D7, Tm90C2A [3]	Pf IC50 Ratio vs Pf IC50 3D7, Tm90C2B [4]	IC50 ([1]; strain 3D7A)	Pf IC50 Ratio vs Pf IC50 3D7, FCR3 [5]	IC50 [6]	IC50 [7]	Tox window selectivity index [7]	IC50 [8]	IC50 [8, 9]
CCCCN(CCCC)CC(O)c1cc(Cl)cc2c1-c1ccc(Cl)cc1/C2=C/c1ccc(Cl)cc1 (centres unmarked) [Lumefantrine]	0.011 ± 0.004 µM	1	0.1	1							
C[C@H]1[C@@H](O)O[C@@H]2O[C@@]3(C)CC[C@H]4[C@H](C)CC[C@@H]1[C@@]24OO3 [Dihydroartemisinine]		1	1	1	0.004 ± 0.0001 µM	1					
CCc1nc(N)nc(N)c1-c1ccc(Cl)cc1 [Pyrimethamine]		>312	>312	>88	0.032 ± 0.001 µM	3					
Cc1[nH]c2sc3cc(-c4ccc(CN(C)C5CCN(Cc6ccc(OC(F)(F)F)cc6)CC5)cc4)ccc3c2c(=O)c1Cl [Example 7, 3-chloro-2-methyl-7-(4-((methyl(1-(4-(trifluoromethoxy)benzyl)piperidin-4-yl)amino)methyl)phenyl)benzo[4,5]thieno[2,3-b]pyridin-4(1H)-one 2,2,2-trifluoroacetate]							121 nM	> 10000 nM			
Cc1[nH]c2sc3cc(-c4ccc(C(F)(F)F)cc4F)ccc3c2c(=O)c1Cl [Example 1, 3-chloro-7-(2-fluoro-4-(trifluoromethyl)phenyl)-2-methylbenzo[4,5] thieno[2,3-b]pyridin-4(1H)-one]		1	1	7	0.012 ± 0.002 µM	1	1.46 nM	3300 nM	300-600	4.6 nM	
O=C1C(O)=C([C@H]2CC[C@H](c3ccc(Cl)cc3)CC2)C(=O)c2ccccc21 [Atovaquone]		2	1	>250	0.001 ± 0.001 µM	>100					
Cc1[nH]c2sc3cc(-c4ccc(C(F)(F)F)cc4C(F)(F)F)ccc3c2c(=O)c1Cl [Example 5, 7-(2,4-bis(trifluoromethyl)phenyl)-3-chloro-2-methylbenzo[4,5]thieno[2,3-b]pyridin-4(1H)-one]							0.433 nM	2420 nM	2200	1.1 nM	
CCN(CC)CCCC(C)Nc1ccnc2cc(Cl)ccc12 (centres unmarked) [Chloroquine]	0.029 ± 0.006 µM	>7	>7	>14		>7					
OC(c1cc(C(F)(F)F)nc2c(C(F)(F)F)cccc12)C1CCCCN1 (centres unmarked) [Mefloquine]		1	0.3	1	0.037 ± 0.001 µM	1					
C[C@H]1[C@H](OC(=O)CCC(=O)O)O[C@@H]2O[C@@]3(C)CC[C@H]4[C@H](C)CC[C@@H]1[C@@]24OO3 [Artesunate]	0.014 ± 0.0003 µM	1	1	1		1					
Cc1[nH]c2sc3cc(-c4ccccc4OC(F)(F)F)ccc3c2c(=O)c1Cl [Example 4, 3-chloro-2-methyl-7-(2-(trifluoromethoxy)phenyl)benzo[4,5]thieno[2,3-b]pyridin-4(1H)-one]							0.732 nM	1560 nM	1625		0.96 nM
Cc1[nH]c2sc3cc(-c4cc(C(F)(F)F)ccc4F)ccc3c2c(=O)c1Cl [Example 3, 3-chloro-7-(2-fluoro-5-(trifluoromethyl)phenyl)-2-methylbenzo[4,5]thieno[2,3-b]pyridin-4(1H)-one]							31.6 nM	1520 nM	500		1.8 nM
Cc1[nH]c2sc3cc(-c4ccc(CO)cc4)ccc3c2c(=O)c1Cl [Example 6, 3-chloro-7-(4-(hydroxymethyl)phenyl)-2-methylbenzo[4,5]thieno[2,3-b]pyridin-4(1H)-one]							0.946 nM	5420 nM			
